Legend:
[1] = test system: patients with fasting triglyceride levels >200 mg/dl and <500 mg/dl despite statin therapy; assay: 12-week study: lipoprotein particle size (VLDL, LDL, HDL; nuclear magnetic resonance); assay type: in vivo, human; conditions: for LDL Particle Size, Week 12 EP Median (IQR): MITT; for LDL Particle Size, Percent change from Baseline, Median (IQR) / LDL Particle Size, Difference from placebo, Estimated median: Week 12, MITT; for LDL Particle Size, Difference from placebo, Estimated median: difference in percent change
From the text: (§1) Parameters (a)-(z) can be measured in accordance with any clinically acceptable methodology. For example, triglycerides, total cholesterol, HDL-C and fasting blood sugar can be sample from serum and analyzed using standard photometry techniques. VLDL-TG, LDL-C and VLDL-C can be calculated or determined using serum lipoprotein fractionation by preparative ultracentrifugation and subsequent quantitative analysis by refractometry or by analytic ultracentrifugal methodology. Apo A1, Apo B and hsCRP can be determined from serum using standard nephelometry techniques. Lipoprotein (a) can be determined from serum using standard turbidimetric immunoassay techniques. LDL particle number and particle size can be determined using nuclear magnetic resonance (NMR) spectrometry. Remnants lipoproteins and LDL-phospholipase A2 can be determined from EDTA plasma or serum and serum, respectively, using enzymatic immunoseparation techniques. Oxidized LDL, intercellular adhesion molecule-1 and interleukin-2 levels can be determined from serum using standard enzyme immunoassay techniques. These techniques are described in detail in standard textbooks, for example Tietz Fundamentals of Clinical Chemistry, 6th Ed. (Burtis, Ashwood and Borter Eds.), WB Saunders Company.
(§2) A multi-center, placebo-controlled, randomized, double-blind, 12-week study was performed to evaluate the efficacy and safety of >96% E-EPA in patients with fasting triglyceride levels >200 mg/dl and <500 mg/dl despite statin therapy (the mean of two qualifying entry values needed to be >185 mg/dl and at least one of the values needed to be >200 mg/dl). The primary objective of the study was to determine the efficacy of >96% E-EPA 2 g daily and 4 g daily, compared to placebo, in lowering fasting TG levels in patients with high risk for cardiovascular disease and with fasting TG levels 200 mg/dl and <500 mg/dl, despite treatment to LDL-C goal on statin therapy.
(§3) The secondary objectives of this study were the following: • 1. To determine the safety and tolerability of >96% E-EPA 2 g daily and 4 g daily; • 2. To determine the effect of >96% E-EPA on lipid and apolipoprotein profiles including total cholesterol (TC), non-high-density lipoprotein cholesterol (non-HDL-C), low density lipoprotein cholesterol (LDL-C), high density lipoprotein cholesterol (HDL-C), and […]; • 3. To determine the effect of >96% E-EPA on lipoprotein associated phospholipase A2 (Lp-PLA2) from baseline to week 12; • 4. To determine the effect of >96% E-EPA on low-density lipoprotein (LDL) particle number and size; • 5. To determine the effect of >96% E-EPA on oxidized LDL; • 6. To determine the effect of >96% E-EPA on fasting plasma glucose (FPG) and hemoglobin A1c (HbA1c); • 7. To determine the effect of >96% E-EPA on insulin resistance; • 8. To determine the effect of >96% E-EPA on high-sensitivity C-reactive protein (hsCRP); • 9. To determine the effects of >96% E-EPA 2 g daily and 4 g daily on the incorporation of fatty acids into red blood cell membranes and into plasma phospholipids; • 10. To explore the relationship between baseline fasting TG levels and the reduction in fasting TG levels; and • 11. To explore the relationship between changes of fatty acid concentrations in plasma and red blood cell membranes, and the reduction in fasting TG levels.
(§4) The primary efficacy variable for the double-blind treatment period was percent change in TG from baseline to Week 12 endpoint. […]

[2] = test system: patients with fasting triglyceride levels >200 mg/dl and <500 mg/dl despite statin therapy; assay: 12-week study: glucose metabolism (FPG, HbA1c, insulin, HOMA-IR); assay type: in vivo, human; conditions: MITT; for Fasting plasma glucose Percent change from Baseline Median (IQR) / HOMA-IR Percent change from Baseline Median (IQR) / HbAlc Percent change from Baseline Median (IQR) / Insulin Percent change from Baseline Median (IQR): Week 12 EP; for Fasting plasma glucose Percent change from Baseline Median (IQR) / HOMA-IR Percent change from Baseline Median (IQR) / HbAlc Percent change from Baseline Median (IQR) / Insulin Percent change from Baseline Median (IQR) / Fasting plasma glucose Difference from placebo Estimated median / HOMA-IR Difference from placebo Estimated median / HbAlc Difference from placebo Estimated median / Insulin Difference from placebo Estimated median: ANCOVA; for Fasting plasma glucose Difference from placebo Estimated median / HOMA-IR Difference from placebo Estimated median / HbAlc Difference from placebo Estimated median / Insulin Difference from placebo Estimated median: change from baseline to Week 12 EP
From the text: as §1, §2, §3, §4

[3] = 2 g/day E-EPA (n = 221), 12 weeks
[4] = 2 g/day E-EPA (n = 222), 12 weeks
[5] = 2 g/day, 12 weeks, Hodges-Lehmann median
[6] = 4 g/day E-EPA (n = 215), 12 weeks
[7] = 4 g/day E-EPA (n = 216), 12 weeks
[8] = 4 g/day, 12 weeks, Hodges-Lehmann median, listed as E-EPA
[9] = IPE 4 g/day (n = 215), 12 weeks
[10] = IPE 4 g/day (n = 216), 12 weeks
[11] = IPE 4 g/day vs placebo, 12 weeks, Hodges-Lehmann median

Q: How did the “LDL particle size, % Δ from baseline (median)” value [1, 3] turn out when CC/C=C\C/C=C\C/C=C\C/C=C\C/C=C\CCCC(=O)OCC [AMR101, ethyl eicosapentaenoate] was run?
A: +0.5%

Q: What about the “LDL particle size, End (median)” value [1, 3] of the same molecule?
A: 20.0 nm

Q: What about the “HDL particle size, % Δ from baseline (median)” value [1, 4] of the same molecule?
A: 0.0%

Q: And the “HDL particle size, End (median)” value [1, 4]?
A: 8.6 nm

Q: And the “VLDL particle size, % Δ from baseline (median)” value [1, 4]?
A: −5.0%

Q: What about the “VLDL particle size, End (median)” value [1, 4] of the same molecule?
A: 53.2 nm

Q: And the “HDL particle size, Placebo-Adjusted Median Change from Baseline, 2 g/d” value [1, 5]?
A: 0.0%

Q: And the “LDL particle size, Placebo-Adjusted Median Change from Baseline, 2 g/d” value [1, 5]?
A: +0.5%

Q: And the “VLDL particle size, Placebo-Adjusted Median Change from Baseline, 2 g/d” value [1, 5]?
A: −4.8%

Q: And the “LDL particle size, % Δ from baseline (median)” value [1, 6]?
A: +0.5%

Q: What about the “LDL particle size, End (median)” value [1, 6] of the same molecule?
A: 20.0 nm

Q: What about the “HDL particle size, % Δ from baseline (median)” value [1, 7] of the same molecule?
A: −1.1%

Q: What about the “HDL particle size, End (median)” value [1, 7] of the same molecule?
A: 8.6 nm

Q: And the “VLDL particle size, % Δ from baseline (median)” value [1, 7]?
A: −8.1%

Q: What about the “VLDL particle size, End (median)” value [1, 7] of the same molecule?
A: 51.2 nm

Q: What about the “HDL particle size, Placebo-Adjusted Median Change from Baseline, 4 g/d” value [1, 8] of the same molecule?
A: −1.2%

Q: What about the “LDL particle size, Placebo-Adjusted Median Change from Baseline, 4 g/d” value [1, 8] of the same molecule?
A: +0.5%

Q: And the “VLDL particle size, Placebo-Adjusted Median Change from Baseline, 4 g/d” value [1, 8]?
A: −7.7%

Q: And the “LDL Particle Size, Week 12 EP Median (IQR)” value ([1]; AMR101 2g/d + statin, n 221)?
A: 20.0 (0.6) nm

Q: And the “LDL Particle Size, Percent change from Baseline, Median (IQR)” value ([1]; AMR101 2g/d + statin)?
A: 0.5 (2.5) %

Q: And the LDL Particle Size, Difference from placebo, Estimated median ([1]; AMR101 2g/d + statin)?
A: 0.5%

Q: And the “LDL Particle Size, Week 12 EP Median (IQR)” value ([1]; AMR101 4g/d + statin, n 215)?
A: 20.0 (0.6) nm

Q: And the “LDL Particle Size, Percent change from Baseline, Median (IQR)” value ([1]; AMR101 4g/d + statin)?
A: 0.5 (2.5) %

Q: And the LDL Particle Size, Difference from placebo, Estimated median ([1]; AMR101 4g/d + statin)?
A: 0.5%

Q: And the “LDL particle size, Change From Baseline, % (median)” value [1, 9]?
A: 0.5%

Q: And the “LDL particle size, End of Treatment (median)” value [1, 9]?
A: 20.0 nm

Q: What about the “HDL particle size, Change From Baseline, % (median)” value [1, 10] of the same molecule?
A: −1.1%

Q: And the “HDL particle size, End of Treatment (median)” value [1, 10]?
A: 8.6 nm

Q: And the “VLDL particle size, Change From Baseline, % (median)” value [1, 10]?
A: −8.1%

Q: And the “VLDL particle size, End of Treatment (median)” value [1, 10]?
A: 51.2 nm

Q: What about the “HDL particle size, Median Change From Baseline IPE 4 g/day vs Placebo, %” value [1, 11] of the same molecule?
A: −1.2%

Q: And the “LDL particle size, Median Change From Baseline IPE 4 g/day vs Placebo, %” value [1, 11]?
A: 0.5%

Q: And the “VLDL particle size, Median Change From Baseline IPE 4 g/day vs Placebo, %” value [1, 11]?
A: −7.7%

Q: What about the “Fasting plasma glucose Week 12 EP Median (IQR)” value ([2]; AMR101 2 g/d + statin) of the same molecule?
A: 138.0 (44.9) mg/dL

Q: What about the “HOMA-IR Week 12 EP Median (IQR)” value ([2]; AMR101 2 g/d + statin) of the same molecule?
A: 6.4 (4.5)

Q: What about the “HbAlc Week 12 EP Median (IQR)” value ([2]; AMR101 2 g/d + statin) of the same molecule?
A: 6.8 (1.2) %

Q: And the “Insulin Week 12 EP Median (IQR)” value ([2]; AMR101 2 g/d + statin)?
A: 18.6 (11.0) μIU/mL

Q: And the “Fasting plasma glucose Percent change from Baseline Median (IQR)” value ([2]; AMR101 2 g/d + statin)?
A: 3.6 (2.1) %

Q: What about the “HOMA-IR Percent change from Baseline Median (IQR)” value ([2]; AMR101 2 g/d + statin) of the same molecule?
A: −0.6 (0.4) %

Q: And the “HbAlc Percent change from Baseline Median (IQR)” value ([2]; AMR101 2 g/d + statin)?
A: 0.2 (0.04) %

Q: What about the “Insulin Percent change from Baseline Median (IQR)” value ([2]; AMR101 2 g/d + statin) of the same molecule?
A: −1.2 (0.9) %

Q: What about the “Fasting plasma glucose Difference from placebo Estimated median” value ([2]; AMR101 2 g/d + statin) of the same molecule?
A: −0.6 (3.0)

Q: What about the “HOMA-IR Difference from placebo Estimated median” value ([2]; AMR101 2 g/d + statin) of the same molecule?
A: −0.1 (0.5)

Q: What about the “HbAlc Difference from placebo Estimated median” value ([2]; AMR101 2 g/d + statin) of the same molecule?
A: −0.0 (0.05)

Q: And the “Insulin Difference from placebo Estimated median” value ([2]; AMR101 2 g/d + statin)?
A: −0.1 (1.3)

Q: And the “Fasting plasma glucose Week 12 EP Median (IQR)” value ([2]; AMR101 4 g/d + statin)?
A: 141.9 (51.1) mg/dL

Q: And the “HOMA-IR Week 12 EP Median (IQR)” value ([2]; AMR101 4 g/d + statin)?
A: 6.9 (6.7)

Q: What about the “HbAlc Week 12 EP Median (IQR)” value ([2]; AMR101 4 g/d + statin) of the same molecule?
A: 6.9 (1.1) %

Q: And the “Insulin Week 12 EP Median (IQR)” value ([2]; AMR101 4 g/d + statin)?
A: 19.0 (16.2) μIU/mL

Q: And the “Fasting plasma glucose Percent change from Baseline Median (IQR)” value ([2]; AMR101 4 g/d + statin)?
A: 8.9 (2.1) %

Q: What about the “HOMA-IR Percent change from Baseline Median (IQR)” value ([2]; AMR101 4 g/d + statin) of the same molecule?
A: −0.1 (0.4) %

Q: What about the “HbAlc Percent change from Baseline Median (IQR)” value ([2]; AMR101 4 g/d + statin) of the same molecule?
A: 0.3 (0.04) %

Q: What about the “Insulin Percent change from Baseline Median (IQR)” value ([2]; AMR101 4 g/d + statin) of the same molecule?
A: −1.1 (0.9) %

Q: And the “Fasting plasma glucose Difference from placebo Estimated median” value ([2]; AMR101 4 g/d + statin)?
A: 4.7 (3.0)

Q: And the “HOMA-IR Difference from placebo Estimated median” value ([2]; AMR101 4 g/d + statin)?
A: 0.3 (0.6)

Q: What about the “HbAlc Difference from placebo Estimated median” value ([2]; AMR101 4 g/d + statin) of the same molecule?
A: 0.1 (0.05)

Q: What about the “Insulin Difference from placebo Estimated median” value ([2]; AMR101 4 g/d + statin) of the same molecule?
A: 0.0 (1.3)
